# Columns and labels:
# SF-268 = experiment: Cytotoxicity against human SF268 cells assessed as growth inhibition after 48 hrs by sulforhodamine B assay; type: functional, cell-based; conditions: for IC50: SF-268, 48 h
# MCF7 = experiment: Cytotoxicity against human MCF7 cells assessed as growth inhibition after 48 hrs by sulforhodamine B assay; type: functional, cell-based; conditions: for IC50: MCF7, 48 h
# NCI-H460 = experiment: Cytotoxicity against human NCI-H460 cells assessed as growth inhibition after 48 hrs by sulforhodamine B assay; type: functional, cell-based; conditions: for IC50: NCI-H460, 48 h
# WI-38 [1] = experiment: Cytotoxicity against human WI38 cells assessed as decrease in cell viability up to 25 uM after 4 to 20 hrs by trypan blue exclusion assay; type: cell-based
# PrEC [2] = experiment: Cytotoxicity against human PrEC assessed as decrease in cell viability up to 25 uM after 24 hrs by trypan blue exclusion assay; type: cell-based
# PrEC [3] = experiment: Cytotoxicity against human PrEC assessed as growth inhibition after 48 hrs by trypan blue exclusion assay; type: cell-based; conditions: for IC50: Homo sapiens, PrEC; for growth inhibition (GI): human, prec
# WI-38 [4] = experiment: Cytotoxicity against human WI38 cells assessed as growth inhibition after 48 hrs by trypan blue exclusion assay; type: cell-based; conditions: for IC50: Homo sapiens, WI-38, 48 h; for growth inhibition (GI): human, wi-38, 48 h
# [5] = Cytotoxicity against human NCM460 cells assessed as growth inhibition after 48 hrs by trypan blue exclusion assay; type: cell-based; conditions: for IC50: Homo sapiens, NCM460, 48 h; for growth inhibition (GI): human, ncm460, 48 h
# [6] = Cytotoxicity against human NCM460 cells assessed as decrease in cell viability up to 25 uM after 4 to 20 hrs by trypan blue exclusion assay; type: cell-based
Compound,IC50 (SF-268) [nM],IC50 (MCF7) [nM],IC50 (NCI-H460) [nM],Activity (WI-38 [1]),growth inhibition (GI) (SF-268),Activity (PrEC [2]),IC50 (PrEC [3]) [nM],growth inhibition (GI) (PrEC [3]),IC50 (WI-38 [4]) [nM],growth inhibition (GI) (WI-38 [4]),IC50 [5] [nM],growth inhibition (GI) [5],Activity [6],growth inhibition (GI) (MCF7),growth inhibition (GI) (NCI-H460)
COc1cccc2c1C(=O)c1c(O)c3c(c(O)c1C2=O)C[C@@](O)(C(=O)CO)C[C@@H]3O[C@H]1C[C@H](N)[C@H](O)[C@H](C)O1 [DOXORUBICIN],90,40,90,,,,,,,,,,,,
CC1(C)CC(=O)C2=C(C1)OC1=C(C(=O)CC(C)(C)C1)C2c1ccccc1,36300,30400,20100,Non-toxic,Dose-dependent effect,Non-toxic,450,Dose-dependent effect,470,Dose-dependent effect,90,Dose-dependent effect,Non-toxic,Dose-dependent effect,Dose-dependent effect
CC1(C)CC(=O)C(C(C2=C(O)CC(C)(C)CC2=O)c2ccccc2)=C(O)C1,20,20,10,Non-toxic,Dose-dependent effect,Non-toxic,1290,Dose-dependent effect,2180,Dose-dependent effect,2430,Dose-dependent effect,Non-toxic,Dose-dependent effect,Dose-dependent effect
CC1(C)CC(=O)C(C(C2=C(O)CC(C)(C)CC2=O)c2ccco2)=C(O)C1,30,30,30,Non-toxic,Dose-dependent effect,Non-toxic,330,Dose-dependent effect,80,Dose-dependent effect,60,Dose-dependent effect,Non-toxic,Dose-dependent effect,Dose-dependent effect
